Consider 3 compounds from patent US7153844B2, “Estrogen-linked platinum (II) complexes as anticancer agents” (priority 2002, dated 2006).

SMILES strings stand for the structures.

Assay type in all cases: cell-based, human
One experiment deals with MDA-MB-231. The experiment is described as follows: Cell proliferation with the SRB assay. The note with it: read-out: IC50 (Inhibitory concentration 50%), MDA-MB-231 (ER−) breast carcinoma. The source says:
(§1) Cell Proliferation with the SRB Assay (Breast Cancer Cell Lines)
(§2) Two human breast tumor cell lines were used to evaluate the antitumor activities of the new estrogen-linked platinum (II) complexes. […] Cell proliferation was done with the sulforhodamine B (SRB) assay as described by Alley, M. C. et al. (Cancer Research. no 48, 589–601 (1988)) and Boyd, M. R. & Paull, K. D. (Drug Development Research. 34, 91–109, (1995)).
Background: In SRB staining, fixed cells bind dye roughly in proportion to their protein.

The subject of a further experiment is MCF-7. The experiment is described as follows: Cell proliferation with the SRB assay. The note with it: read-out: IC50 (Inhibitory concentration 50%), MCF-7 (ER+) breast carcinoma.
Text: as §1, §2

For another experiment, the system named is RL-95-2. The experiment is described as follows: Cell proliferation with the MTT assay. The note with it: read-out: IC50 (Inhibitory concentration 50%), RL-95-2, uterus, ER+, NR = IC50 not reach at the concentrations tested. The text has this:
(§3) Cell Proliferation with the MTT Assay (Uterine, Ovarian and Breast Cancer Cell Lines)
(§4) Several human uterine, ovarian and breast cancer cell lines were used to evaluate the antitumor activities of the new estrogen-linked platinum (II) complexes. The cytotoxicity of the platinum (II) complexes was done along with cisplatin as the control on both ER+ and ER— human uterine, ovarian and breast carcinomas. Cell proliferation was done with the MTT assay as described by J. Carmichael et al. (Cancer Res. 47, 943–946 (1987) see also C. H. J. Ford et al., Cancer Chemother. Pharmacol. 24, 295–301 (1986)). The MTT assay is based on the ability of viable cells to reduce a soluble colorless tetrazolium salt, 3-(4,5-dimethylthiazol-2-yl)-2,5-diphenyltetrazolium bromide (MTT), into an insoluble blue formazan derivative.
On the technique in general: Tetrazolium assays rely on reduction of a dye to a coloured formazan, in cell work by metabolically active cells.

Another experiment has as its system Ishikawa. Put plainly: Cell proliferation with the MTT assay. The note with it: read-out: IC50 (Inhibitory concentration 50%), uterus, ER+, NR = IC50 not reach at the concentrations tested.
Text: as §3, §4

A further experiment deals with HEC-1A. Put plainly: Cell proliferation with the MTT assay. The following applies: read-out: IC50 (Inhibitory concentration 50%), uterus, ER−, NR = IC50 not reach at the concentrations tested.
Text: as §3, §4

The next experiment relates to KLE. The experiment is described as follows: Cell proliferation with the MTT assay. The following applies: read-out: IC50 (Inhibitory concentration 50%), uterus, ER−, NR = IC50 not reach at the concentrations tested.
Text: as §3, §4

As for `C[C@]12CCC3c4ccc(O)cc4CCC3C1C[C@H](CCCCCCCCCCCNCCc1ccccn1)[C@@H]2O.[Cl][Pt][Cl]` (stereo partly drawn) [derivative 12 (∘ = 2), 16β-[11′-(2″-pyridylethylamino)undecanyl]-1,3,5(10)-estratrien-3,17β-diol dichloroplatinate (II)], the IC50 was less than 0.78 µM in the experiment with MDA-MB-231; less than 0.78 µM in the experiment on MCF-7; 1 µM with RL-95-2; 0.25 µM in the experiment with Ishikawa; 3.75 µM with HEC-1A; 1.75 µM with KLE.

As to `C[C@]12CC[C@@H]3c4ccc(O)cc4CC[C@H]3[C@@H]1C[C@H](CCCCCCCCCCCNCc1ccccn1)[C@@H]2O.[Cl][Pt][Cl]` [derivative 12 (∘ = 1), 16β-[11′-(2″-picolylamino)undecanyl]-1,3,5(10)-estratrien-3,17β-diol dichloroplatinate (II)], the IC50 amounted to 4.1 µM in the experiment on MDA-MB-231; 5.9 µM in the experiment on MCF-7; 7 µM in the experiment with RL-95-2; 28 µM in the experiment on Ishikawa; 13 µM in the experiment on HEC-1A; 6 µM in the experiment on KLE.

Consider `N.N.[Cl][Pt][Cl]` [Cisplatin, cis-diamminedichloroplatinum (II), reference compound], for which the IC50 with MDA-MB-231 worked out at 12.8 µM; with MCF-7, 16.1 µM; with RL-95-2 it was 14.1 ± 0.5 µM; in the experiment on Ishikawa it was 3.7 ± 0.9 µM; with HEC-1A it was 20.8 ± 4.7 µM; with KLE, 24.3 ± 6.3 µM.
